US11571011B2, “Compositions of steviol multiglycosylated derivatives and stevia components” (SWEET GREEN FIELDS USA LLC, priority 2015, dated 2023)
“And” between values parts separate entries of the source, which are not always exact repeats. Equal entries are not always repeated. One block for each compound: values may come before it.

Columns and labels:
[1] = Evaluation of taste profile: sugar like, bitterness, aftertaste, lingering scored 0-5 by sensory panel; assay type: in vivo, human
Description: 1. The components where mixed and then dissolved in aqueous citric acid (pH 3.8) with ultrasound at room temperature and left to sit for 30 min.
For evaluation of taste profile, the samples were tested and were scored 0-5 according to the increasing sugar like, bitterness, aftertaste and lingering taste profiles. The results were recorded as the mean value of the results provided by the panel.

[2] = Calculated versus measured sweetness of GSG / steviol glycoside compositions from sweetness curves (synergistic effect); design: species or system human; details: for Calculated SE of RA97: citric acid pH 3.8
Description: The sweetness of GSG-RA50 and RA97 compositions at varying concentrations was measured according to the sweetness curve (FIG. 9), and the combined sweetness of each composition of GSG-RA50 and RA97 was calculated and compared with the measured value in Table 19.
Calculated SE (ppm sucrose) of GSG-RA50 per ppm=calculated SE of GSG-RA50/concentration of GSG-RA50. Measured sweetness (ppm sucrose) of GSG-RA50 per ppm=(Measured SE−Calculated SE of RA97)/concentration of GSG-RA50.
The sweetness of GSG-RA95 and rebaudioside A, 97% purity (RA) RA97 compositions at varying concentrations was measured according to the sweetness curve (FIG. 13), and the combined sweetness of each composition of GSG-RA95 and RA97 was calculated and compared with the measured value in Table 23.
Calculated sweetness (ppm sugar) of GSG-RA50 per ppm=calculated SE of GSG-RA50/concentration of GSG-RA50. Measured sweetness (ppm sugar) of GSG-RA50 per ppm=(Measured SE-calculated SE of RA97)/concentration of GSG-RA50.
Calculated sweetness (ppm sugar) of GSG-RA20 plus RA97 per ppm=calculated SE of GSG-RA20 plus RA97/concentration of GSG-RA20 plus RA97
Measured sweetness (ppm sugar) of GSG-RA20 plus RA97 per ppm=(Measured SE of GSG-RA20 plus RA97−sugar concentration)/concentration of GSG-RA20 plus RA97

[3] = Solubility of spray-dried GSG-RA20 / steviol glycoside 1:1 compositions (Example 56); assay type: physicochemical
Description: GSG-RA20 was mixed with RA, RB, RD or stevioside as the ratio of 1:1 by weight so as to obtain a mixture, a certain amount of solvent, such as water, ethanol/water mixture, was added into the obtained mixture, heated to a certain temperature until the mixture was completely dissolved, and the temperature was kept for an hour. The solution was treated by spray drying to obtain the composition comprising GSG and SG.

[4] = background; cited from earlier work
[5] = RA97 400 ppm (control), citric acid pH 3.8
[6] = total solid content 350 ppm, panel score
[7] = 0.01 g of each component in 10 ml water

Stable time [3, 7]: insoluble
Compound: C=C1C[C@@]23CC[C@H]4[C@@](C)(CCC[C@@]4(C)C(=O)O[C@@H]4O[C@H](CO)[C@@H](O)[C@H](O)[C@H]4O[C@@H]4O[C@H](CO)[C@@H](O)[C@H](O)[C@H]4O)[C@@H]2CC[C@]1(O[C@@H]1O[C@H](CO)[C@@H](O)[C@H](O[C@@H]2O[C@H](CO)[C@@H](O)[C@H](O)[C@H]2O)[C@H]1O[C@@H]1O[C@H](CO)[C@@H](O)[C@H](O)[C@H]1O)C3 [Rebaudioside D]

Stable time [3, 7]: insoluble
Compound: Rebaudioside B

More lines, now with the values behind:

Compound: C=C1C[C@@]23CC[C@H]4[C@@](C)(CCC[C@@]4(C)C(=O)O[C@@H]4O[C@H](CO)[C@@H](O)[C@H](O)[C@H]4O)[C@@H]2CC[C@]1(O[C@@H]1O[C@H](CO)[C@@H](O)[C@H](O[C@@H]2O[C@H](CO)[C@@H](O)[C@H](O)[C@H]2O)[C@H]1O[C@@H]1O[C@H](CO)[C@@H](O)[C@H](O)[C@H]1O)C3 [RA97, Rebaudioside A]
Aftertaste [1, 5]: 3 | Bitterness [1, 5]: 2 | Lingering [1, 5]: 4 | Sugar like [1, 5]: 3 | Aftertaste [1, 6]: 3 | Bitterness [1, 6]: 2 | Lingering [1, 6]: 4 | Sugar like [1, 6]: 3 | Calc. SE of RA97 ([2]; RA97 50 ppm, read from sweetness curve): 1.5% | Calc. SE of RA97 ([2]; RA97 50 ppm, with GSG-RA90, 350 ppm total solids): 1.5% | Calc. SE of RA97 ([2]; RA97 100 ppm, read from sweetness curve): 3% and 3.2% | Calculated SE of RA97 ([2]; RA97 100 ppm): 3% | Calc. SE of RA97 ([2]; RA97 100 ppm, with GSG-RA90, 350 ppm total solids): 3.2% | Calc. SE of RA97 ([2]; RA97 100 ppm, with GSG-RA95, 200 ppm total solids): 3% | Calc. SE of RA97 ([2]; RA97 150 ppm, read from sweetness curve): 4.2% and 4% | Calculated SE of RA97 ([2]; RA97 150 ppm): 4.20% | Calc. SE of RA97 ([2]; RA97 150 ppm, with GSG-RA90, 350 ppm total solids): 4% | Calc. SE of RA97 ([2]; RA97 150 ppm, with GSG-RA95, 200 ppm total solids): 4.2% | Calc. SE of RA97 ([2]; RA97 200 ppm, read from sweetness curve): 5% | Calculated SE of RA97 ([2]; RA97 200 ppm): 5% | Calc. SE of RA97 ([2]; RA97 200 ppm, with GSG-RA90, 350 ppm total solids): 5% | Calc. SE of RA97 ([2]; RA97 250 ppm, read from sweetness curve): 6% | Calculated SE of RA97 ([2]; RA97 250 ppm): 6% | Calc. SE of RA97 ([2]; RA97 250 ppm, with GSG-RA90, 350 ppm total solids): 6% | Calc. SE of RA97 ([2]; RA97 300 ppm, read from sweetness curve): 6.9% and 7% | Calculated SE of RA97 ([2]; RA97 300 ppm): 6.90% | Calc. SE of RA97 ([2]; RA97 300 ppm, with GSG-RA90, 350 ppm total solids): 6.9% | Calc. SE of RA97 ([2]; RA97 300 ppm, with GSG-RA95, 500 ppm total solids): 7% | Calc. SE of RA97 ([2]; RA97 400 ppm, read from sweetness curve): 8.25% | Calc. SE of RA97 ([2]; RA97 400 ppm, with GSG-RA95, 500 ppm total solids): 8.25% | Measured SE of the composition ([2]; RA97 alone, 350 ppm, no GSG): 8% | Calculated SE of the single component (steviol glycoside composition or GSG) alone ([2]; component at 150 ppm): 4.00% | Calculated SE of the single component (steviol glycoside composition or GSG) alone ([2]; component at 200 ppm): 5.00% | Calculated SE of the single component (steviol glycoside composition or GSG) alone ([2]; component at 250 ppm): 6.00%

Compound: C=C1C[C@@]23CC[C@H]4[C@@](C)(CCC[C@@]4(C)C(=O)O[C@@H]4O[C@H](CO)[C@@H](O)[C@H](O)[C@H]4O)[C@@H]2CC[C@]1(O[C@@H]1O[C@H](CO)[C@@H](O)[C@H](O[C@@H]2O[C@H](CO)[C@@H](O)[C@H](O)[C@H]2O)[C@H]1O[C@@H]1O[C@H](CO)[C@@H](O)[C@H](O)[C@H]1O)C3 [Rebaudioside A]
Stable time ([3]; 1 g in 10 ml water): 2 h

Compound: C=C1C[C@@]23CC[C@H]4[C@@](C)(CCC[C@@]4(C)C(=O)O[C@@H]4O[C@H](CO)[C@@H](O)[C@H](O)[C@H]4O)[C@@H]2CC[C@]1(O[C@@H]1O[C@H](CO)[C@@H](O)[C@H](O)[C@H]1O[C@@H]1O[C@H](CO)[C@@H](O)[C@H](O)[C@H]1O)C3 [Stevioside]
times sweeter than sugar [4]: approximately 300 times
